Common to all, as to assay type: cell-based
The target in one assay is T1, BTK-GFP (Homo sapiens, UniProt Q06187+Q96SW2).
T1 construct: expressed in transfected cells; host or cells: HEK293A (Invitrogen R70507), lentiviral transduction with pLenti6-BTK-GFP-Ires-RFP, blasticidin selection
Briefly: BTK-GFP protein abundance flow cytometry assay in HEK293A cells. As to conditions: HEK293A BTK-GFP-iresRFP cells, 24 h; for DC50: GFP signal by flow cytometry, concentration at which 50% maximal degradation was observed; for BTK deg Amax: % protein remaining at the concentration at which maximum degradation is seen. As to the method: (§1) Compounds of the invention were tested in the following cellular assays. The terms in Table 2 are defined as follows: DC50 refers to the concentration at which 50% maximal degradation was observed; deg Amax is the extent of degradation and the value refers to the % protein remaining at the concentration at which maximum degradation is seen; ProI GI50 refers to the proliferation data and defines the concentration at which 50% growth inhibition was observed compared to the vehicle treated control at the end of the incubation time. TMD8 cells are BTK dependent and OCI-LY3 cells are BTK independent.
BTK-GFP and IKZF3-GFP protein abundance flow cytometry assay in HEK293A cells:
Degradation of BTK or IKZF3 was measured in HEK293A cells (Invitrogen R70507) expressing either BTK-GFP and RFP or IKZF3-GFP and RFP from a stably integrated bicistronic BTK-GFP-iresRFP or IKZF3-GFP-iresRFP construct, respectively. Reduction of the GFP signal measured by flow cytometry served as readout for BTK or IKZF3 degradation after degrader treatment.
i) Cloning of the pLenti6-BTK-GFP-1Res-RFP and IKZF3-GFP-Ires-RFP Sensor Vectors
The bicistronic BTK-GFP-iresRFP construct is based on a pLenti6-DEST vector backbone where GFP was introduced into the unique Xho1 site downstream of the destination cassette (DEST) and RFP was cloned behind an internal ribosomal entry site (Ires).
In detail, the sensor construct was engineered by replacing NanoLuciferase (NLuc) by GFP and FireFly luciferase (FF) by RFP from pLenti6-DEST-NLuc-Ires-FF.
The pLenti6-DEST-NLuc-Ires-FF sensor construct was cloned by replacing eGFP from pLenti6-DEST-ires-eGFP with a synthesized stuffer element (encoding Ires-FF with FF flanked by two Nhe1 restriction sites) using blunt end cloning replacing Ires-eGFP between the two PmII. To enable C-terminal tagging with NanoLuciferase (NLuc), NLuc was amplified from pNL1.1 (Promega #N1001) using linker primers with Xho1 sites for ligating into linearized pLenti6-DEST-Ires-FF using Xho1 digest resulting in the construct pLenti6-DEST-NLuc-Ires-FF.
The pLenti6-DEST-NLuc-Ires-FF served as base vector for cloning pLenti6-DEST-GFP-Ires-RFP using Gibson assembly to replace FF with RFP and NLuc with GFP. In a first round FF was replaced by RFP by amplifying RFP from a template using the following Gibson assembly linker primers (Gibson-Nhe1 RFPfw, […]gctagc[…] (SEQ ID NO: 1); Gibson-Nhe1 RFP-Stoprev, […]ctagc[…] (SEQ ID NO: 2)) to clone into pLenti6-DEST-NLuc-Ires-FF digested with Nhe1 and gel-purified to remove the FF fragment. The resulting pLenti6-DEST-NLuc-Ires-RFP vector served as the template to replace NLuc with GFP by amplifying GFP from a template using following Gibson assembly linker primers (Gibson-Xho1 GFPfw, […]c[…] (SEQ ID NO: 3); Gibson-Xho1 GFP-Stoprev, […] (SEQ ID NO: 4)) to clone into pLenti6-DEST-NLuc-Ires-RFP digested with Xho1 and gel-purified to remove the NLuc fragment. All Gibson assembly reactions were performed with Gibson assembly Master Mix (New England Biolabs NEB E261 IL) according to manufacturer's manual, resulting in the destination vector pLenti6-DEST-GFP-Ires-RFP to allow Gateway cloning. To enable gateway cloning and C-terminal GFP tagging of BTK, the BTK open reading frame (ORF) was first shuttled from a pcDNA-DEST40-BTK vector (Invitrogen library ID INV_20090504v1) into pDONR221 (Invitrogen 12536-017) vector using a gateway BP reaction according to the manufacturer's manual (Invitrogen 11789-013) resulting in the novel construct pENTR221-BTK. For C-terminal tagging the STOP codon was mutated to a leucine performing a mutagenesis reaction with the following primers (pENTR221-BTK Quikchange STOP-Leu fw, gtcatggatgaagaatccTTGaacccagctttcttgtac; pENTR221-BTK Quikchange STOP-Leu REVC, gtacaagaaagctgggttCAAggattcttcatccatgac) using the QuikChange Lightning mutagenesis kit (Agilent Technologies #210518) according to the manufacturer's manual, resulting in pENTR221-BTK (STOP-Leu). […]
In general terms: A flow cytometer gives signals particle by particle.

A further assay concerns TMD8 cells. Briefly: Resazurin cell viability (proliferation) assay in TMD8 DLBCL cells. The note with it: Homo sapiens, TMD8 cells (BTK dependent), 72 h, 50% growth inhibition vs vehicle, read-out: TMD8 Prol GI50. Here is the method: as §1
(§2) Cell Viability Assay in DLBCL (Diffuse Large B-Cell Lymphoma) Cells:
(§3) The effect of the BTK compounds on cell proliferation was measured by a Resazurin (Sigma, #R7017) based cell viability assay. TMD8 (BTK compound sensitive) and OCI-LY3 (BTK compound insensitive) cells were incubated for 72 h at 37° C. and 5% CO2 with the corresponding compound, Resazurin is a non-toxic, cell-permeable substrate that is virtually non-fluorescent. Upon entering living cells, Resazurin (Sigma, #R7017) is reduced to highly fluorescent Resorufin. The metabolic activity was assessed by measuring the fluorescence signal (ex. 530 nm; em. 600 nm).
(§4) TMD8 and OCI-Ly3 cells were seeded at day 0 in triplicates at a cell density of 1×10^4 cells per 150 μl/well in a 96-well plate (Costar #3904). Additional plates were prepared, in order to assess the basal metabolic activity of both cell lines at the beginning of the experiment. For these reference plates, Resazurin (Sigma, #R7017) was added to a final concentration of 13 μg/ml 3 h post seeding and was incubated for 2 h at 37° C. and 5% CO2. Following incubation, the fluorescent signal intensity of the 96-well plates was measured on a Mithras LB940 multimode plate reader at 530/600 nm (Berthold Technologies, Germanyl).
(§5) In parallel, 3 h post-seeding, test-plates were treated with compound at various concentrations, or with vehicle (DMSO) alone for 3 days. The compound addition to the plates was performed by using a HP D300 digital dispenser (TECAN, Switzerland). The compounds were tested in triplicate, 8-point serial dilution (1:4), with a start concentration of 10 μM for OCI-LY3 and 1 μM for the TMD8 cells, respectively. To assess the relative proliferation of the cells, Resazurin was added to each well directly to the medium to a final concentration of 13 μg/ml. The plates were incubated for 2 h at 37° C. and 5% CO2 to result in a 72 h endpoint. Following incubation, the fluorescent signal intensity of the 96-well plates were measured on a Mithras LB940 multimode plate reader at 530/600 nm (Berthold Technologies, Germanyl). The formation of Resorufin dye directly correlates with the number of metabolically active cells. For each triplicate treatment the mean and standard deviation were calculated and analyzed via curve fitting software to determine the respective compound concentration resulting in 50% growth inhibition (GI50) values. For each compound GI50 values were typically determined from at least 2 entirely independent experiments.
TMD8 cells were acquired through a license agreement with Tokyo Medical and Dental University, Japan. Cells are cultivated in MEM Alpha (BioConcept, #1-23F01-1, lot. LB04262P) supplemented with 10% FCS (HyClone, GE #SH30066.03, lot AB3217603), 2 mM L-Glutamine (BioConcept, #5-10K50-H, lot. LA03467P), 1% Pen/Strep (BioConcept, #4-01F00-H, lot. LB04235P).

A further assay relates to OCI-LY3 cells. Briefly: Resazurin cell viability (proliferation) assay in OCI-LY3 DLBCL cells. The note with it: Homo sapiens, OCI-LY3 cells (BTK independent), 72 h, 50% growth inhibition vs vehicle, read-out: OCI-LY3 Prol GI50. Here is the method:
as §1, §2, §3, §4, §5
OCI-LY3 cells were acquired through a license agreement with University Health Network, Toronto, Canada. Cells are cultivated in RPM11640 media (Gibco, #61870-010, lot. 1894759), supplemented with 10% FCS (HyClone, GE #SH30066.03, lot AB217603), 2 mM L-Glutamine (BioConcept, #5-10K50-H, lot. LA03467P), 1 mM Sodium Pyruvate (BioConcept, #5-60F00-H, lot. LB10510P), 10 mM HEPES (Gibco, #15630-056, lot. 1854074), 1% Pen/Strep (BioConcept, #4-01F00-H, lot. LB04235P).

Some results are limits rather than exact numbers.

T1 sequence (Q06187 whole entry): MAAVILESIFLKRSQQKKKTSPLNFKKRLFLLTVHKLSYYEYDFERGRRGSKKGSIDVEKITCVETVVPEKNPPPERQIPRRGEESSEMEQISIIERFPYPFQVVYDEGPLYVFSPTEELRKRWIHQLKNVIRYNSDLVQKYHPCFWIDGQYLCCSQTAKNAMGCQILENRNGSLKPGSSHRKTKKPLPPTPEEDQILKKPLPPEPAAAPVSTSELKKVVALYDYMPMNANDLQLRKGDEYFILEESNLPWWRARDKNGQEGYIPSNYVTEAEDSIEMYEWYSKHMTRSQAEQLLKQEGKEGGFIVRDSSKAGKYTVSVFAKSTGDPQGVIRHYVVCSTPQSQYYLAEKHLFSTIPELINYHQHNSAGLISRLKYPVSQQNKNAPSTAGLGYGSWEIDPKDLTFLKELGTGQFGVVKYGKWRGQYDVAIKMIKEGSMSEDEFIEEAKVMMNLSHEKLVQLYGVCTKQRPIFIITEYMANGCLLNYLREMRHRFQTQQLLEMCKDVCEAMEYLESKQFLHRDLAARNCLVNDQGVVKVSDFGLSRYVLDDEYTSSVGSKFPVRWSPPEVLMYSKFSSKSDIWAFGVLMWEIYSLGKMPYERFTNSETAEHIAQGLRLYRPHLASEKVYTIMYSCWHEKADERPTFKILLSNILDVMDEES
T1 sequence (Q96SW2 whole entry): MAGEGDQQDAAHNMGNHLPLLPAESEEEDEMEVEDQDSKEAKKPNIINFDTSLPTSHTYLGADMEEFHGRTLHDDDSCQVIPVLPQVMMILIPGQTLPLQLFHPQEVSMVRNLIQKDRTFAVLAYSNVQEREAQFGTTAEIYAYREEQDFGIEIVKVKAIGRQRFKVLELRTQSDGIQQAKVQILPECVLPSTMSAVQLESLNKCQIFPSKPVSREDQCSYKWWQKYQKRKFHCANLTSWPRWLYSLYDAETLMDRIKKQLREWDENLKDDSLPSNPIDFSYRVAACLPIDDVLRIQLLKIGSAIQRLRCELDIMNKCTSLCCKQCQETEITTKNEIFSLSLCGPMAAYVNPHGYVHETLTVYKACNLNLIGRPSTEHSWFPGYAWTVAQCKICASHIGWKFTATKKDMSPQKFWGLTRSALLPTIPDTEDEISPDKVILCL
T1 sequence (Q16531 whole entry partner): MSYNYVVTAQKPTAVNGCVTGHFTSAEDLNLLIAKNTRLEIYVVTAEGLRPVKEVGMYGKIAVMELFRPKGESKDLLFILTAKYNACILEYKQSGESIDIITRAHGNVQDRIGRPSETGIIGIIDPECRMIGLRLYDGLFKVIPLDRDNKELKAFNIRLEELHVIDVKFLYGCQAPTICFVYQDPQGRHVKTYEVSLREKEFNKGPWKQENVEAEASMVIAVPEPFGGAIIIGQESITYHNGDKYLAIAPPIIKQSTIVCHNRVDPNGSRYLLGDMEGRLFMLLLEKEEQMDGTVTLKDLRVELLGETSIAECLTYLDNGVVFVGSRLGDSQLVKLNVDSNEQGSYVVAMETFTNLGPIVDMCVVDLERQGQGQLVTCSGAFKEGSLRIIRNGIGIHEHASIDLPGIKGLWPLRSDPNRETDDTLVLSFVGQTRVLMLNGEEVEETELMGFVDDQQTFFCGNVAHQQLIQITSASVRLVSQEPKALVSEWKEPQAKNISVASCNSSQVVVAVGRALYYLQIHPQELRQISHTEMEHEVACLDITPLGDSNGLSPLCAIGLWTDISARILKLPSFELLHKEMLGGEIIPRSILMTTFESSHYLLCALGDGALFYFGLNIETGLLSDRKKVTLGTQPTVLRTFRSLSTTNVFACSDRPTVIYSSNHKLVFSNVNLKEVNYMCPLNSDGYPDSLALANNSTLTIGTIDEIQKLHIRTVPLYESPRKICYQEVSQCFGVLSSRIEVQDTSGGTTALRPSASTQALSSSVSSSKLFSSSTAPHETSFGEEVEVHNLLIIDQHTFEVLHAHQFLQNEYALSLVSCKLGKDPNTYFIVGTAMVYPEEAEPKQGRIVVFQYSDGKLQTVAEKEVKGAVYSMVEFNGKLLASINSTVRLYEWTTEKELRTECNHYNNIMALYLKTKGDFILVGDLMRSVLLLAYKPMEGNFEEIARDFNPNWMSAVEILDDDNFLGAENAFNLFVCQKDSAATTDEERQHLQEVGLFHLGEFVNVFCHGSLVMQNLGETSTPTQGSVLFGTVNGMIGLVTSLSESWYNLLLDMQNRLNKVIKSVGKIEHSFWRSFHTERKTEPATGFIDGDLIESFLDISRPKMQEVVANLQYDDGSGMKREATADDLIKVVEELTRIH

Turning to `COc1ccc(C(=O)N2CCC3(CCN(Cc4ccc(-c5cc6c(-c7cc(F)cc(NC(=O)c8ccc(C(C)(C)O)cc8F)c7C)ncnc6[nH]5)cc4)CC3)C(CO)C2)cc1N1CCC(=O)NC1=O` (racemic) [Compound 1, rac-N-(3-(6-(4-((9-(3-(2,4-Dioxotetrahydropyrimidin-1(2H)-yl)-4-methoxybenzoyl)-7-(hydroxymethyl)-3,9-diazaspiro[5.5]undecan-3-yl)methyl)phenyl)-7H-pyrrolo[2,3-d]pyrimidin-4-yl)-5-fluoro-2-methylphenyl)-2-fluoro-4-(2-hydroxypropan-2-yl)benzamide], on BTK-GFP, it took 26.2 nM to reach half-maximal degradation (DC50) and the “BTK deg Amax” value amounted to 4.2%. Also, the GI50 – broadly, the concentration at which growth is held to half of that of the control – with TMD8 cells worked out at 3.89 nM. In addition, in the assay on OCI-LY3 cells, the concentration for 50% growth inhibition (GI50) was > 10 µM.

For `COc1ccc(C(=O)N2CCC(OC(CO)CN3CCC(Oc4ccc(-c5cc6c(-c7cc(F)cc(NC(=O)c8ccc(C(C)(C)O)cc8F)c7C)ncnc6[nH]5)cc4)CC3)CC2)cc1N1CCC(=O)NC1=O` (racemic) [Compound 18, rac-N-(3-(6-(4-((1-(2-((1-(3-(2,4-Dioxotetrahydropyrimidin-1(2H)-yl)-4-methoxybenzoyl)piperidin-4-yl)oxyl)-3-hydroxypropyl)piperidin-4-yl)oxyl)phenyl)-7H-pyrrolo[2,3-d]pyrimidin-4-yl)-5-fluoro-2-methylphenyl)-2-fluoro-4-(2-hydroxypropan-2-yl)benzamide], on BTK-GFP, half-maximal degradation (DC50) was put at 10.8 nM and the “BTK deg Amax” value is 3.4%. In addition, the 50% growth inhibitory concentration (GI50) in the assay with TMD8 cells was 1.58 nM. The GI50 in the assay on OCI-LY3 cells turned out to be 4.32 µM.

For `COc1ccc(C(=O)N2CCC3(CCN(Cc4ccc(-c5cc6c(-c7cc(F)cc(NC(=O)c8ccc(C(C)(C)O)cc8F)c7C)ncnc6[nH]5)cc4)CC3CO)CC2)cc1N1CCC(=O)NC1=O` (racemic) [Compound 23, rac-N-(3-(6-(4-((9-(3-(2,4-Dioxotetrahydropyrimidin-1(2H)-yl)-4-methoxybenzoyl)-1 (hydroxymethyl)-3,9-diazaspiro[5.5]undecan-3-yl)methyl)phenyl)-7H-pyrrolo[2,3-d]pyrimidin-4-yl)-5-fluoro-2-methylphenyl)-2-fluoro-4-(2-hydroxypropan-2-yl)benzamide], at BTK-GFP, the half-maximal degradation concentration (DC50) (in general, the midpoint of the concentration-degradation curve) is 46.8 nM and the “BTK deg Amax” value was 10.4%. In addition, the GI50 with TMD8 cells stood at 5.35 nM. For the same compound, the concentration for 50% growth inhibition (GI50) with OCI-LY3 cells is > 10 µM.

Regarding `COc1ccc(C(=O)N2CCC3(CCN(Cc4ccc(-c5cc6c(-c7cc(F)cc(NC(=O)c8ccc(C(C)(C)O)cc8F)c7C)ncnc6[nH]5)cc4)CC3)[C@@H](CO)C2)cc1N1CCC(=O)NC1=O` (single isomer, unassigned) [Compound 2], on BTK-GFP, half-maximal degradation (DC50) was put at 38.5 nM and the “BTK deg Amax” value is 4.6%. Besides, the GI50 in the assay with TMD8 cells was determined as 3.57 nM. The GI50 in the assay on OCI-LY3 cells was > 10 µM.

Consider `COc1ccc(C(=O)N2CCC3(CCN(Cc4ccc(-c5cc6c(-c7cc(F)cc(NC(=O)c8ccc(C(C)(C)O)cc8F)c7C)ncnc6[nH]5)cc4)CC3)[C@H](CO)C2)cc1N1CCC(=O)NC1=O` (single isomer, unassigned) [Compound 3], for which, at BTK-GFP, the DC50 was found to be 19.1 nM and the “BTK deg Amax” value was 3.6%. In addition, the GI50 with TMD8 cells was determined as 2.24 nM. Moreover, the 50% growth inhibitory concentration (GI50) in the assay with OCI-LY3 cells is > 10 µM.

On BTK-GFP, `COc1ccc(C(=O)N2CCC3(CCN(Cc4ccc(-c5cc6c(-c7cc(F)cc(NC(=O)c8ccc(C(C)(C)O)cc8F)c7C)ncnc6[nH]5)cc4)C[C@@H]3CO)CC2)cc1N1CCC(=O)NC1=O` (single isomer, unassigned) [Compound 24] yielded a 50% degradation concentration (DC50) of 77.1 nM. Moreover, the “BTK deg Amax” value on BTK-GFP amounted to 10.8%. The GI50 in the assay on TMD8 cells is 5.98 nM; in the assay with OCI-LY3 cells it was > 10 µM.

As to `COc1ccc(C(=O)N2CCC3(CCN(Cc4ccc(-c5cc6c(-c7cc(F)cc(NC(=O)c8ccc(C(C)(C)O)cc8F)c7C)ncnc6[nH]5)cc4)C[C@H]3CO)CC2)cc1N1CCC(=O)NC1=O` (single isomer, unassigned) [Compound 25], on BTK-GFP, the DC50 came out at 78.4 nM and the “BTK deg Amax” value was found to be 7.2%. Moreover, the concentration for 50% growth inhibition (GI50) with TMD8 cells came out at 11.4 nM. The 50% growth inhibitory concentration (GI50) in the assay with OCI-LY3 cells was > 10 µM.

These data come from US12441733B2, “Substituted 2,4-dioxotetrahydropyrimidines as intermediates in the synthesis of bruton's tyrosine kinase inhibitors” (Novartis AG, priority 2018, dated 2025).
